The target of this experiment is Aldo-keto reductase family 1 member B1 (Homo sapiens, UniProt P15121). The experiment can be described thus: Enzyme Inhibition Assay. As to conditions: pH 6.2; 30 °C. On the procedure: The activity of the test enzyme was determined spectrophotometrically by monitoring the change in absorbance at 340 nm, which is due to the oxidation of NADPH or the reduction of NAD+ catalyzed by ALR2. The determination of the IC50 values was performed by using linear regression analysis of the log dose response curve.

The values that follow come from BindingDB's records for doi:10.1016/j.jmb.2007.03.021 (University of Marburg, 2007).

The term IC50 denotes the concentration that inhibits the measured activity by half. Read a low IC50 as greater potency.

In turn, `O=C(O)CN1C(=O)c2c(ccc3ccccc23)S1(=O)=O` [2-(3,5,5-trioxo-5-thia-4-azatricyclo[7.4.0.0^{2,6}]trideca-1,6,8,10,12-pentaen-4-yl)acetic acid] returned an IC50 of 10 µM.
The value for `Nc1cccc2c3c(ccc12)S(=O)(=O)N(CC(=O)O)C3=O` [2-(10-amino-3,5,5-trioxo-5-thia-4-azatricyclo[7.4.0.0^{2,6}]trideca-1,6,8,10,12-pentaen-4-yl)acetic acid] was 100 µM.
The value for `O=C(O)CN1C(=O)c2c(ccc3c([N+](=O)[O-])cccc23)S1(=O)=O` [2-(10-nitro-3,5,5-trioxo-5-thia-4-azatricyclo[7.4.0.0^{2,6}]trideca-1,6,8,10,12-pentaen-4-yl)acetic acid] was 180 µM.
The value for `Nc1cccc2ccc3c(c12)C(=O)N(CC(=O)O)S3(=O)=O` [2-(13-amino-3,5,5-trioxo-5-thia-4-azatricyclo[7.4.0.0^{2,6}]trideca-1,6,8,10,12-pentaen-4-yl)acetic acid] was 100 µM.
`O=C(O)CN1C(=O)c2c(ccc3cccc([N+](=O)[O-])c23)S1(=O)=O` [2-(13-nitro-3,5,5-trioxo-5-thia-4-azatricyclo[7.4.0.0^{2,6}]trideca-1,6,8,10,12-pentaen-4-yl)acetic acid] yielded an IC50 of 190 µM.
In the case of `O=C(O)CN1C(=O)c2c(c(C(=O)O)cc3ccccc23)S1(=O)=O` [2-(carboxymethyl)-1-oxo-1,2-dihydronaphtho[1,2-d]isothiazole-4-carboxylic acid 3,3-dioxide] it was 0.14 µM; in that of `O=C(O)COC(=O)c1cc2ccccc2c2c1S(=O)(=O)N(CC(=O)O)C2=O` [2-{[4-(carboxymethyl)-3,5,5-trioxo-5-thia-4-azatricyclo[7.4.0.0^{2,6}]trideca-1,6,8,10,12-pentaen-7-yl]carbonyloxy}acetic acid], 0.55 µM.
`CN1C(=O)c2c(c(C(=O)O)cc3ccccc23)S1(=O)=O` [4-methyl-3,5,5-trioxo-5-thia-4-azatricyclo[7.4.0.0^{2,6}]trideca-1,6,8,10,12-pentaene-7-carboxylic acid] came in with an IC50 of 88 µM. Compared with the last molecule, the IC50 is about 160-fold higher.
